Experimental findings from article PMC9697826 (Pharmaceuticals, 2022) are described below.

T1 sequence (P15090 whole entry): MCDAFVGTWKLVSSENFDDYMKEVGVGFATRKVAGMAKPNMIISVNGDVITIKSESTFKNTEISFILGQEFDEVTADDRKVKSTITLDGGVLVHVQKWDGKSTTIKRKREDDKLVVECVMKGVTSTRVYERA

The first series has as its target T1, FABP4 (Homo sapiens, UniProt P15090).
T1 construct: purchased Cayman Chemical 10010231
Put plainly: FABP4 Inhibitor/Ligand Screening Assay Kit: displacement of a fluorescent detection reagent. The conditions noted are these: displacement of detection reagent from FABP4; compounds diluted in PBS pH 7.4; fluorescence em 470 nm, ex 370 nm. The format is binding.
Description: FABP4 inhibitory activity was assessed by measuring the decrease in fluorescent signal of a detection reagent (DR) when displaced by a strong FABP4 ligand. […] Therefore, any effective ligand of the protein, which binds to the same binding pocket and can displace the DR, determines a reduction in the fluorescence read-out. The new molecular series was screened in a two-step procedure. Firstly, a single concentration of 5 µM was used to gain an estimation of the overall inhibitory effect of all the molecules.
To analyze the inhibitory activity of FABP4 ligands, a displacement assay was utilized as described by the Cayman’s instruction, FABP4 Inhibitor/Ligand Screening Assay Kit, Item 10,010,231 (see Supplementary Materials for additional details). The samples of compounds for activity determination were prepared as a stock solution (1 mM) in DMSO. On the day of activity assay, the compounds were all diluted in phosphate buffer solution (PBS, pH 7.4) to different concentrations (100, 50, 10, 5, 2, 1, and 0 µM). Appropriate concentrations of DMSO in PBS were used as control. The detection reagent (FABP Assay Detection Reagent, Item 10010376) was used as provided by the Cayman’s kit. The diluted Detection Reagent probe was mixed with FABP4 protein present in the kit and incubated for 10 min at room temperature. Compounds were then added and equilibrated for another 10 min. Lastly, the fluorescence signal was recorded at 470 nm (i.e., emission, with the excitation fixed at 370 nm) with a CytoFluor® Series 4000 Fluorescence Multi-Well Plate Reader.
The term IC50 denotes the concentration that inhibits the measured activity by half. Low values mean inhibition by little substance, high ones a need for much substance. In turn, `CCCNC(=O)c1c(-c2ccccc2)n[nH]c(=O)c1N` [Compound 4b, 5-Amino-6-oxo-3-phenyl-1,6-dihydropyridazine-4-carboxylic acid propylamide] gave an IC50 of 8.27 ± 0.2 µM.
As to `N#Cc1c(-c2ccccc2)nn(C2CCCCC2)c(=O)c1N` [Compound 22, 5-Amino-1-cyclohexyl-6-oxo-3-phenyl-1,6-dihydropyridazine-4-carbonitrile], the IC50 is 15.2 ± 0.76 µM.
The compound `Cn1nc(-c2ccccc2)cc(Nc2ccccc2C#N)c1=O` [Compound 30b, 2-(2-Methyl-3-oxo-6-phenyl-2,3-dihydro-pyridazin-4-ylamino)benzonitrile] came in with an IC50 of 23.2 ± 0.52 µM.
As for `Cc1cc(N)c(=O)n(-c2ccccc2)n1` [Compound 54], the IC50 is above 50 µM.

The series is the same for the next values; noted with them: summary statement in conclusions.
`CCCNC(=O)c1c(-c2ccccc2)n[nH]c(=O)c1N` [Compound 4b, 5-Amino-6-oxo-3-phenyl-1,6-dihydropyridazine-4-carboxylic acid propylamide]: the “FABP4 inhibitory activity, IC50 in words” value is reported as “low micromolar range”.
Same read-out and setting: next, `N#Cc1c(-c2ccccc2)nn(C2CCCCC2)c(=O)c1N` [Compound 22, 5-Amino-1-cyclohexyl-6-oxo-3-phenyl-1,6-dihydropyridazine-4-carbonitrile]: “low micromolar range”.
`Cn1nc(-c2ccccc2)cc(Nc2ccccc2C#N)c1=O` [Compound 30b, 2-(2-Methyl-3-oxo-6-phenyl-2,3-dihydro-pyridazin-4-ylamino)benzonitrile]: the “FABP4 inhibitory activity, IC50 in words” value was “low micromolar range”.

Tested on in a further series: not given
Assay: not given
Details: not given
A word on the melting point: it is the temperature, or range, at which the solid turns liquid. In turn, `Nc1c(C(=O)Nc2ccccc2)c(-c2ccccc2)n[nH]c1=O` [Compound 4a, 5-Amino-6-oxo-3-phenyl-1,6-dihydropyridazine-4-carboxylic acid phenylamide] returned a melting point of 228 to 229 °C.
`CCCNC(=O)c1c(-c2ccccc2)n[nH]c(=O)c1N` [Compound 4b, 5-Amino-6-oxo-3-phenyl-1,6-dihydropyridazine-4-carboxylic acid propylamide] yielded a melting point of 228 to 230 °C.
The compound `CCn1nc(-c2ccccc2)c(C(=O)Nc2ccccc2)c(N)c1=O` [Compound 5a, 5-Amino-1-ethyl-6-oxo-3-phenyl-1,6-dihydropyridazine-4-carboxylic acid phenylamide] had a melting point of 172 to 173 °C.
`CCCNC(=O)c1c(-c2ccccc2)nn(CC)c(=O)c1N` [Compound 5b, 5-Amino-1-ethyl-6-oxo-3-phenyl-1,6-dihydro-pyridazine-4-carboxylic acid propylamide] came in with a melting point of 141 to 143 °C.
Regarding `NC(=O)c1c(-c2ccccc2)n[nH]c(=O)c1N` [Compound 6, 5-Amino-6-oxo-3-phenyl-1,6-dihydropyridazine-4-carboxylic acid amide], the melting point was above 300 °C.
`N#Cc1c(-c2ccccc2)n[nH]c(=O)c1N` [Compound 7, 5-Amino-6-oxo-3-phenyl-1,6-dihydropyridazine-4-carbonitrile] showed a melting point of 287 to 289 °C.
For the compound `Cc1nn(-c2ccccc2)c(=O)c(N)c1C(N)=O` [Compound 16, 5-Amino-3-methyl-6-oxo-1-phenyl-1,6-dihydropyridazine-4-carboxylic acid amide], the melting point is 247 to 249 °C.
The compound `Cc1nn(-c2ccccc2)c(=O)c(N)c1C#N` [Compound 17, 5-Amino-3-methyl-6-oxo-1-phenyl-1,6-dihydropyridazine-4-carbonitrile] gave a melting point of 201 to 203 °C.
Consider `CC(=O)c1cnn(-c2ccccc2)c(=O)c1N` [Compound 18, 5-Acetyl-4-amino-2-phenylpyridazin-3(2H)-one], for which the melting point lay in the range of 181 to 183 °C.
In the case of `NC(=O)c1c(-c2ccccc2)nn(C2CCCCC2)c(=O)c1N` [Compound 21, 5-Amino-1-cyclohexyl-6-oxo-3-phenyl-1,6-dihydropyridazine-4-carboxylic acid amide], the melting point was in the range of 125 to 128 °C.
In turn, `N#Cc1c(-c2ccccc2)nn(C2CCCCC2)c(=O)c1N` [Compound 22, 5-Amino-1-cyclohexyl-6-oxo-3-phenyl-1,6-dihydropyridazine-4-carbonitrile] yielded a melting point of 170 to 172 °C.
Compound `Nc1cc(-c2ccccc2)nn(C2CCCCC2)c1=O` [Compound 24b, 4-Amino-2-cyclohexyl-6-phenylpyridazin-3(2H)-one] came in with a melting point of 120 to 124 °C.
`CC(C)n1nc(-c2ccccc2)cc(N)c1=O` [Compound 24d, 4-Amino-2-isopropyl-6-phenylpyridazin-3(2H)-one] had a melting point of 122 to 124 °C.
The compound `CCCn1nc(-c2ccccc2)cc(N)c1=O` [Compound 24e, 4-Amino-6-phenyl-2-propylpyridazin-3(2H)-one] came in with a melting point of 79 to 81 °C.
Consider `CCCCn1nc(-c2ccccc2)cc(N)c1=O` [Compound 24f, 4-Amino-2-butyl-6-phenylpyridazin-3(2H)-one], for which the melting point is 67 to 69 °C.
Compound `NC(=O)Nc1cc(-c2ccccc2)nn(C2CCCCC2)c1=O` [Compound 25b, (2-Cyclohexyl-3-oxo-6-phenyl-2,3-dihydro-pyridazin-4-yl)urea] gave a melting point of 261 to 263 °C.
Still for that read-out and setting: next, `CC(C)n1nc(-c2ccccc2)cc(NC(N)=O)c1=O` [Compound 25d, (2-Isopropyl-3-oxo-6-phenyl-2,3-dihydro-pyridazin-4-yl)urea]: 260 to 263 °C; `CCCCn1nc(-c2ccccc2)cc(NC(N)=O)c1=O` [Compound 25f, (2-Butyl-3-oxo-6-phenyl-2,3-dihydro-pyridazin-4-yl)urea]: 265 to 267 °C.
On to `NC(=O)Nc1cc(-c2ccccc2)n[nH]c1=O` [Compound 28, (3-Oxo-6-phenyl-2,3-dihydro-pyridazin-4-yl)urea], for which the melting point is above 300 °C.
In turn, `CC(=O)Nc1cc(-c2ccccc2)nn(C)c1=O` [Compound 29a, N-(2-Methyl-3-oxo-6-phenyl-2,3-dihydro-pyridazin-4-yl)acetamide] came in with a melting point of 211 to 212 °C.
`CCC(=O)Nc1cc(-c2ccccc2)nn(C)c1=O` [Compound 29b, N-(2-Methyl-3-oxo-6-phenyl-2,3-dihydro-pyridazin-4-yl)propionamide]: the melting point lay within 210 to 211 °C.
In turn, `CC(C)C(=O)Nc1cc(-c2ccccc2)nn(C)c1=O` [Compound 29c, N-(2-Methyl-3-oxo-6-phenyl-2,3-dihydro-pyridazin-4-yl)isobutyramide] registered a melting point of 146 to 148 °C.
`CCCC(=O)Nc1cc(-c2ccccc2)nn(C)c1=O` [Compound 29d, N-(2-Methyl-3-oxo-6-phenyl-2,3-dihydro-pyridazin-4-yl)butyramide] gave a melting point of 187 to 189 °C.
The compound `Cn1nc(-c2ccccc2)cc(Nc2cccc(C#N)c2)c1=O` [Compound 30a, 3-(2-Methyl-3-oxo-6-phenyl-2,3-dihydro-pyridazin-4-ylamino)benzonitrile] gave a melting point of 234 to 235 °C.
Compound `Cn1nc(-c2ccccc2)cc(Nc2cccc(C(N)=O)c2)c1=O` [Compound 31a, 3-(2-Methyl-3-oxo-6-phenyl-2,3-dihydro-pyridazin-4-ylamino)benzamide] displayed a melting point of 214 to 216 °C.
The compound `Cn1nc(-c2ccccc2)cc(Nc2ccccc2C(N)=O)c1=O` [Compound 31b, 2-(2-Methyl-3-oxo-6-phenyl-2,3-dihydro-pyridazin-4-ylamino)benzamide] had a melting point of 140 to 142 °C.
`Cn1nc(-c2ccccc2)cc(N)c1=S` [Compound 32, 4-Amino-2-methyl-6-phenylpyridazine-3(2H)-thione] yielded a melting point of 134 to 135 °C.
The compound `Nc1cc(-c2ccsc2)n[nH]c1=O` [Compound 37a, 4-Amino-6-thiophen-3-yl-pyridazin-3(2H)-one] displayed a melting point above 300 °C.
`Nc1cc(C2CCCCC2)n[nH]c1=O` [Compound 37b, 4-Amino-6-cyclohexylpyridazin-3(2H)-one] came in with a melting point of 284 to 287 °C.
`CC(C)c1cc(N)c(=O)[nH]n1` [Compound 37c, 4-Amino-6-isopropylpyridazin-3(2H)-one]: the melting point lay within 246 to 248 °C.
On the same count and under the same terms, under `Nc1cc(Cc2ccccc2)n[nH]c1=O` [Compound 37d, 4-Amino-6-benzylpyridazin-3(2H)-one] stands 247 to 250 °C; under `Cn1nc(-c2ccsc2)cc(N)c1=O` [Compound 38a, 4-Amino-2-methyl-6-thiophen-3-yl-pyridazin-3(2H)-one], 178 to 179 °C.
In the case of `Cn1nc(Cc2ccccc2)cc(N)c1=O` [Compound 38d, 4-Amino-6-benzyl-2-methylpyridazin-3(2H)-one], the melting point fell in the range of 104 to 108 °C.
The compound `Cn1nc(C2CCCCC2)cc(NC(N)=O)c1=O` [Compound 39a, (6-Cyclohexyl-2-methyl-3-oxo-2,3-dihydropyridazin-4-yl)urea] gave a melting point of 251 to 254 °C.
In turn, `CC(C)c1cc(NC(N)=O)c(=O)n(C)n1` [Compound 39b, (6-Isopropyl-2-methyl-3-oxo-2,3-dihydropyridazin-4-yl)urea] had a melting point of 248 to 251 °C.
Compound `NC(=O)Nc1cc(-c2ccccc2O)n[nH]c1=O` [Compound 40, [6-(2-Hydroxy-phenyl)-3-oxo-2,3-dihydro-pyridazin-4-yl]-urea] registered a melting point above 300 °C.
Compound `Cn1nc(-c2ccccc2O)cc(N)c1=O` [Compound 42a, 4-Amino-6-(2-hydroxyphenyl)-2-methylpyridazin-3(2H)-one] showed a melting point of 212 to 213 °C.
`Cn1nc(-c2ccc(N)cc2)cc(N)c1=O` [Compound 42b, 4-Amino-6-(4-aminophenyl)-2-methylpyridazin-3(2H)-one] came in with a melting point of 208 to 209 °C.
Same read-out and setting: next, `Cn1nc(-c2ccccc2O)cc(NC(N)=O)c1=O` [Compound 43, [6-(2-Hydroxyphenyl)-2-methyl-3-oxo-2,3-dihydropyridazin-4-yl]-urea]: 278 to 280 °C; `CC(=O)Nc1ccc(-c2cc(N)c(=O)n(C)n2)cc1` [Compound 44, N-[4-(5-Amino-1-methyl-6-oxo-1,6-dihydropyridazin-3-yl)-phenyl]-acetamide]: 270 to 272 °C; `Cn1nc(-c2ccccn2)cc(N)c1=O` [Compound 48, 4-Amino-2-methyl-6-pyridin-2-yl-pyridazin-3(2H)-one]: 294 to 295 °C.
`Cn1nc(-c2ccccn2)cc(NC(N)=O)c1=O` [Compound 49, (2-Methyl-3-oxo-6-pyridin-2-yl-2,3-dihydropyridazin-4-yl)-urea] returned a melting point above 300 °C.
Still for that read-out and setting: under `Cn1nc(-c2ccccc2)cc(C(N)=O)c1=O` [Compound 51, 2-Methyl-3-oxo-6-phenyl-2,3-dihydropyridazine-4-carboxamide] stands 215 to 217 °C.
`Cc1nn(-c2ccccc2)c(=O)c(N)c1-c1ccn[nH]1` [Compound 57, 4-Amino-6-methyl-2-phenyl-5-(1H-pyrazol-5-yl)pyridazin-3(2H)-one] displayed a melting point of 119 to 121 °C.
